In one experiment the test system is HT-29. The experiment in a line: Antiproliferative activity against human HT-29 cells measured after 72 hrs by MTT assay. The settings on record: HT-29, 72 h.
The test system of the next experiment is A549. The experiment in a line: cells. Conditions: Homo sapiens, A549, 72 h.
For the next experiment, the system named is PC-3. Put plainly: cells. The settings on record: Homo sapiens, PC-3, 72 h.
Another experiment relates to MCF7. The experiment in a line: Antiproliferative activity against human MCF7 cells measured after 72 hrs by MTT assay. The class given is functional, cell-based. The settings on record: MCF7, 72 h. On the technique in general: Tetrazolium assays rely on reduction of a dye to a coloured formazan, in cell work by metabolically active cells.

Description for A549: Antiproliferative activity against human A549 cells measured after 72 hrs by MTT assay
Description for PC-3: Antiproliferative activity against human PC-3 cells measured after 72 hrs by MTT assay

What is called IC50 is the concentration that inhibits the measured activity by half. A low value points to greater potency in that assay. Take `COc1cc2c(Oc3ccc(NC(=O)Cc4nnc(-c5ccc(F)cc5)o4)cc3F)ccnc2cc1OCCCN1CCCC1`: the results for the IC50 with HT-29, with A549 and in the experiment on PC-3 were 2370 nM, 91 nM and 210 nM, respectively.

For the compound `COc1cc2c(Oc3ccc(NC(=O)Cc4nnc(-c5ccc(F)cc5)o4)cc3F)ccnc2cc1OCCCN1CCCCC1`, the IC50 in the experiment on HT-29 is 813 nM; in the experiment on A549, 813 nM; in the experiment on PC-3, 400 nM.

In the case of `COc1cc2nccc(Oc3ccc(NC(=O)c4cc(-c5ccc(F)cc5)on4)cc3)c2cc1OC`, the IC50 is greater than 100000 nM in the experiment with HT-29, 40400 nM in the experiment on A549 and 29400 nM with PC-3.

Regarding `COc1cc2nccc(Oc3ccc(NC(=O)c4nc(-c5ccc(F)cc5)no4)cc3)c2cc1OC`, the results for the IC50 in the experiment with HT-29, with A549 and in the experiment with PC-3 were 39700 nM, 10300 nM and greater than 100000 nM, respectively.

Regarding `COc1cc2nccc(Oc3ccc(NC(=O)c4ncc(-c5ccc(F)cc5)o4)cc3)c2cc1OC`, the IC50 in the experiment with HT-29 is greater than 100000 nM; with A549, 5590 nM; in the experiment on PC-3, 21900 nM.

Take `COc1cc2c(Oc3ccc(NC(=O)Cc4ncc(-c5ccc(F)cc5)o4)cc3F)ccnc2cc1OCCCN1CCOCC1`: the IC50 came out at 13700 nM in the experiment on HT-29, 596 nM with A549 and 2410 nM with PC-3.

`COc1cc2c(Oc3ccc(NC(=O)Cc4nc(-c5ccc(F)cc5)no4)cc3F)ccnc2cc1OCCCN1CCC(C)CC1`: the half-maximal inhibitory concentration (IC50) was determined as 1160 nM in the experiment with HT-29, 106 nM in the experiment on A549 and 330 nM with PC-3.

Regarding `COc1cc2c(Oc3ccc(NC(=O)C(C)c4nnc(-c5ccc(F)cc5)o4)cc3F)ccnc2cc1OCCCN1CCN(C)CC1` (stereo not given), the IC50 with HT-29 was 1960 nM; with MCF7, 1630 nM; with A549 it was 75 nM; in the experiment with PC-3 it was 1700 nM.

`COc1cc2c(Oc3ccc(NC(=O)Cc4nnc(-c5ccc(Cl)cc5)o4)cc3F)ccnc2cc1OCCCN1CCC(C)CC1`: the figures for the IC50 with HT-29, in the experiment with A549 and in the experiment on PC-3 were 2460 nM, 630 nM and 360 nM, respectively.

As for `COc1cc2c(Oc3ccc(NC(=O)C(C)(C)c4nnc(-c5ccc(F)cc5)o4)cc3F)ccnc2cc1OCCCN1CCCCC1`, the IC50 turned out to be 871 nM in the experiment with HT-29, 470 nM in the experiment with MCF7, 215 nM in the experiment with A549 and 1760 nM in the experiment on PC-3.

On to `COc1cc2c(Oc3ccc(NC(=O)Cc4ncc(-c5ccc(F)cc5)o4)cc3F)ccnc2cc1OCCCN1CCCCC1`, for which the IC50 was determined as 1040 nM in the experiment with HT-29, 1040 nM in the experiment on A549 and 530 nM in the experiment on PC-3.

For `CCC(C(=O)Nc1ccc(Oc2ccnc3cc(OCCCN4CCCC4)c(OC)cc23)c(F)c1)c1nnc(-c2ccc(F)cc2)o1` (stereo not given), the IC50 in the experiment on HT-29 turned out to be 570 nM; in the experiment on MCF7, 1040 nM; with A549 it was 78 nM; in the experiment with PC-3, 1420 nM.

As for `COc1cc2c(Oc3ccc(NC(=O)c4nnc(-c5ccc(F)cc5)o4)cc3)ccnc2cc1OCCCN1CCC(C)CC1`, the values for the IC50 with HT-29, in the experiment with A549 and in the experiment with PC-3 were 7890 nM, 2730 nM and 3810 nM, respectively.

Turning to `COc1ccc(-c2nnc(CC(=O)Nc3ccc(Oc4ccnc5cc(OCCCN6CCC(C)CC6)c(OC)cc45)c(F)c3)o2)cc1`, the IC50 was 7520 nM in the experiment with HT-29, 1560 nM with A549 and 410 nM with PC-3.

As for `COc1cc2c(Oc3ccc(NC(=O)c4ncc(-c5ccc(F)cc5)o4)cc3)ccnc2cc1OCCCN1CCC(C)CC1`, the IC50 in the experiment with HT-29 stood at 1890 nM; in the experiment with A549, 240 nM; in the experiment on PC-3, 720 nM.

As to `COc1cc2c(Oc3ccc(NC(=O)Cc4nnc(-c5ccc(Br)cc5)o4)cc3F)ccnc2cc1OCCCN1CCC(C)CC1`, the IC50 amounted to 583 nM with HT-29, 102 nM with A549 and 680 nM with PC-3.

Consider `COc1cc2c(Oc3ccc(NC(=O)C(C)(C)c4nnc(-c5ccc(F)cc5)o4)cc3F)ccnc2cc1OCCCN1CCCC1`, for which the IC50 was found to be 1030 nM in the experiment with HT-29, 263 nM in the experiment with A549 and 1050 nM with PC-3.

Take `COc1cc2c(Oc3ccc(NC(=O)C4(c5nnc(-c6ccc(F)cc6)o5)CC4)cc3F)ccnc2cc1OCCCN1CCN(C)CC1`: the IC50 is 1050 nM in the experiment on HT-29, 2610 nM in the experiment with MCF7, 143 nM in the experiment on A549 and 1670 nM in the experiment on PC-3.

On to `COc1cc2c(Oc3ccc(NC(=O)Cc4nnc(-c5ccc(F)cc5)o4)cc3F)ccnc2cc1OCCCN1CCOCC1`, for which the IC50 was determined as 4300 nM in the experiment on HT-29, 103 nM in the experiment with A549 and 680 nM with PC-3.

As for `CCC(C(=O)Nc1ccc(Oc2ccnc3cc(OCCCN4CCOCC4)c(OC)cc23)c(F)c1)c1nnc(-c2ccc(F)cc2)o1` (stereo not given), the IC50 was 2020 nM in the experiment with HT-29, 2690 nM in the experiment with MCF7, 49 nM with A549 and 2530 nM in the experiment with PC-3.

Take `COc1cc2c(Oc3ccc(NC(=O)C(C)c4nnc(-c5ccc(F)cc5)o4)cc3F)ccnc2cc1OCCCN1CCOCC1` (stereo not given): the IC50 in the experiment on HT-29 was found to be 2540 nM; in the experiment with MCF7 it was 1050 nM; in the experiment on A549, 52 nM; with PC-3, 1180 nM.

For the compound `COc1cc2c(Oc3ccc(NC(=O)Cc4nnc(-c5ccccc5)o4)cc3F)ccnc2cc1OCCCN1CCC(C)CC1`, the figures for the IC50 in the experiment on HT-29, with A549 and in the experiment with PC-3 were 7810 nM, 920 nM and 4730 nM, respectively.

Regarding `CCC(C(=O)Nc1ccc(Oc2ccnc3cc(OCCCN4CCC(C)CC4)c(OC)cc23)c(F)c1)c1nnc(-c2ccc(F)cc2)o1` (stereo not given), the IC50 in the experiment with HT-29 was 554 nM; in the experiment on MCF7, 460 nM; with A549 it was 119 nM; with PC-3, 400 nM.

Regarding `CCC(C(=O)Nc1ccc(Oc2ccnc3cc(OCCCN4CCCCC4)c(OC)cc23)c(F)c1)c1nnc(-c2ccc(F)cc2)o1` (stereo not given), the IC50 stood at 1080 nM in the experiment with HT-29, 410 nM with MCF7, 92 nM in the experiment on A549 and 1470 nM in the experiment on PC-3.

For the compound `COc1cc2nccc(Oc3ccc(NC(=O)c4nnc(-c5ccc(F)cc5)o4)cc3)c2cc1OC`, the IC50 in the experiment with HT-29 is 52300 nM; in the experiment with A549, 5140 nM; in the experiment on PC-3 it was greater than 100000 nM.

For the compound `COc1cc2c(Oc3ccc(NC(=O)C(C)(C)c4nnc(-c5ccc(F)cc5)o4)cc3F)ccnc2cc1OCCCN1CCC(C)CC1`, the IC50 in the experiment on HT-29 came to 648 nM; in the experiment with MCF7, 370 nM; in the experiment on A549, 420 nM; in the experiment with PC-3, 1490 nM.

In the case of `CCC(C(=O)Nc1ccc(Oc2ccnc3cc(OCCCN4CCN(C)CC4)c(OC)cc23)c(F)c1)c1nnc(-c2ccc(F)cc2)o1` (stereo not given), the IC50 with HT-29 is 1540 nM; in the experiment on MCF7 it was 2220 nM; in the experiment on A549 it was 38 nM; in the experiment on PC-3 it was 970 nM.

As for `COc1cc2c(Oc3ccc(NC(=O)C(C)c4nnc(-c5ccc(F)cc5)o4)cc3F)ccnc2cc1OCCCN1CCCCC1` (stereo not given), the IC50 was found to be 1000 nM in the experiment on HT-29, 1040 nM in the experiment with MCF7, 86 nM in the experiment with A549 and 1260 nM in the experiment with PC-3.

As for `COc1cc2c(Oc3ccc(NC(=O)C(C)c4nnc(-c5ccc(F)cc5)o4)cc3F)ccnc2cc1OCCCN1CCCC1` (stereo not given), the IC50 with HT-29 amounted to 1270 nM; in the experiment with MCF7 it was 2700 nM; in the experiment with A549, 76 nM; with PC-3, 1080 nM.

Consider `COc1cc2c(Oc3ccc(NC(=O)c4nc(-c5ccc(F)cc5)no4)cc3)ccnc2cc1OCCCN1CCC(C)CC1`, for which the IC50 was 6380 nM with HT-29, 870 nM with A549 and 1040 nM in the experiment with PC-3.

In the case of `COc1cc2c(Oc3ccc(NC(=O)C(C)(C)c4nnc(-c5ccc(F)cc5)o4)cc3F)ccnc2cc1OCCCN1CCN(C)CC1`, the IC50 in the experiment on HT-29 amounted to 1080 nM; in the experiment with MCF7, 2480 nM; in the experiment with A549 it was 597 nM; in the experiment with PC-3, 1900 nM.

As to `COc1cc2c(Oc3ccc(NC(=O)Cc4nnc(-c5ccc(F)cc5)o4)cc3F)ccnc2cc1OCCCN1CCC(C)CC1`, the IC50 was 238 nM in the experiment with HT-29, 82 nM in the experiment on A549 and 280 nM in the experiment with PC-3.

In the case of `COc1cc2c(Oc3ccc(NC(=O)C(C)(C)c4nnc(-c5ccc(F)cc5)o4)cc3F)ccnc2cc1OCCCN1CCOCC1`, the IC50 with HT-29 turned out to be 2480 nM; in the experiment on MCF7 it was 1600 nM; with A549, 275 nM; in the experiment with PC-3, 1790 nM.

With `COc1cc2c(Oc3ccc(NC(=O)Cc4ncc(-c5ccc(F)cc5)o4)cc3F)ccnc2cc1OCCCN1CCN(C)CC1`, the IC50 in the experiment with HT-29 was determined as 2520 nM; in the experiment with A549 it was 254 nM; in the experiment on PC-3, 570 nM.

Take `COc1cc2c(Oc3ccc(NC(=O)Cc4ncc(-c5ccc(F)cc5)o4)cc3F)ccnc2cc1OCCCN1CCC(C)CC1`: the IC50 in the experiment on HT-29 came to 109 nM; in the experiment on A549, 105 nM; with PC-3 it was 540 nM.

For `COc1cc2c(Oc3ccc(NC(=O)C4(c5nnc(-c6ccc(F)cc6)o5)CC4)cc3F)ccnc2cc1OCCCN1CCCC1`, the IC50 turned out to be 779 nM with HT-29, 310 nM in the experiment on MCF7, 150 nM in the experiment on A549 and 2340 nM in the experiment with PC-3.

Take `COc1cc2nccc(Oc3ccc(NC(=O)C4(C(=O)Nc5ccc(F)cc5)CC4)cc3)c2cc1OC` [CABOZANTINIB]: the IC50 in the experiment with HT-29 was found to be 4560 nM; with A549, 3750 nM; in the experiment on PC-3, 8250 nM.

As to `COc1cc2c(Oc3ccc(NC(=O)Cc4nnc(-c5ccc(F)cc5)o4)cc3F)ccnc2cc1OCCCN1CCN(C)CC1`, the IC50 was found to be 3480 nM in the experiment on HT-29, 71 nM with A549 and 410 nM in the experiment with PC-3.

For the compound `COc1cc2c(Oc3ccc(NC(=O)C4(c5nnc(-c6ccc(F)cc6)o5)CC4)cc3F)ccnc2cc1OCCCN1CCOCC1`, the IC50 was 9330 nM with HT-29, greater than 100000 nM in the experiment with MCF7, 1660 nM with A549 and 13000 nM in the experiment with PC-3.

For `COc1cc2c(Oc3ccc(NC(=O)C4(c5nnc(-c6ccc(F)cc6)o5)CC4)cc3F)ccnc2cc1OCCCN1CCC(C)CC1`, the IC50 with HT-29 stood at 442 nM; in the experiment with MCF7 it was 740 nM; in the experiment with A549, 120 nM; with PC-3, 2180 nM.

For `COc1cc2c(Oc3ccc(NC(=O)Cc4ncc(-c5ccc(F)cc5)o4)cc3F)ccnc2cc1OCCCN1CCCC1`, the IC50 came to 4170 nM with HT-29, 178 nM with A549 and 340 nM in the experiment on PC-3.

(Values after ChEMBL document CHEMBL4680122, “Design, synthesis and biological evaluation of new Axl kinase inhibitors containing 1,3,4-oxadiazole acetamide moiety as novel linker” (Eur J Med Chem, 2020).)
